Test [1] concerns the target T1, Ftu-1 β-lactamase (Francisella tularensis, UniProt Q5NH60). The format is biochemical.
In test [2] the target is T1, Ftu-1 β-lactamase. The settings on record: cited from earlier work.
The target in test [3] is T1, Ftu-1 β-lactamase. Kind of test: biochemical.

Results on 10 compounds are retold here after publication PMC10125328 (ACS Bio & Med Chem Au, 2023).

Values joined by “and” are separate entries in the source; they are usually repeats but may differ in a detail not shown here. Identical values can stand only once. Like-named read-outs stand apart in the source and are kept apart here.

T1 sequence (Q5NH60 1-287): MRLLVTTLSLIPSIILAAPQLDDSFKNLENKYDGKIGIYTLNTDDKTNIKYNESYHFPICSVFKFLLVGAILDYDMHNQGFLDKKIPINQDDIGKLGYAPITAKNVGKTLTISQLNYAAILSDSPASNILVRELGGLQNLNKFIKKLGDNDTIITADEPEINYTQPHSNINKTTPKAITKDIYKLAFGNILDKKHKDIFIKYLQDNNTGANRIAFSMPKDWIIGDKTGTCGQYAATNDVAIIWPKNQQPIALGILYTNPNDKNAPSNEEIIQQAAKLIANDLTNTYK

The Km is the substrate concentration at which the rate is half of its maximum. What is called Vmax is the rate approached at saturating substrate. For `O=C(Cc1cccs1)N[C@@H]1C(=O)N2C(C(=O)O)=C(CSc3ccc([N+](=O)[O-])c(C(=O)O)c3)CS[C@H]12` [CENTA], the Km in test [1] (pH 4.8) stood at 655 ± 37.1 µM; in test [1] (pH 7.6), 128 ± 57 µM; in test [1] (pH 8.5), 228 ± 11.1 µM; in test [1] (pH 10.5) it was 218 ± 30.8 µM. Also, the Vmax in test [1] (pH 4.8) turned out to be 1.001 ± 0.005 µM/min; in test [1] (pH 5.8), 13.12 ± 0.62 µM/min; in test [1] (pH 6.4) it was 24.8 ± 0.9 µM/min; in test [1] (pH 7.2), 30.5 ± 0.5 µM/min; in test [1] (pH 7.6) it was 49.51 ± 15.84 µM/min. The kcat in test [1] (pH 4.8) is 101 ± 1 min^–1; in test [1] (pH 5.8), 1312.75 ± 62.75 min^–1; in test [1] (pH 7.6) it was 4951.67 ± 1583 min^–1; in test [1] (pH 9.5) it was 38.96 ± 11.2 min^–1; in test [1] (pH 10.5), 8.85 ± 0.15 min^–1.

Take `C[C@H]1[C@H](NC(=O)/C(=N\OC(C)(C)C(=O)O)c2csc(N)n2)C(=O)N1S(=O)(=O)O` [aztreonam]: in test [2], the “hydrolysis in the presence of Ftu-1” value is listed as “unhydrolyzed”.

Regarding `CO[C@@]1(NC(=O)Cc2cccs2)C(=O)N2C(C(=O)O)=C(COC(N)=O)CS[C@@H]21` [cefoxitin], in test [2], the “hydrolysis in the presence of Ftu-1” value is recorded as “unhydrolyzed”.

In the case of `CC(C)(O/N=C(\C(=O)N[C@@H]1C(=O)N2C(C(=O)[O-])=C(C[n+]3ccccc3)CS[C@H]12)c1csc(N)n1)C(=O)O` [ceftazidime], in test [2], the kcat is listed as 0.022 ± 0.001 S^–1.

On to `CO/N=C(\C(=O)N[C@@H]1C(=O)N2C(C(=O)O)=C(COC(N)=O)CS[C@H]12)c1ccco1` [cefuroxime], for which the Km in test [2] is 14 ± 2 µM.

A word on the Ki: it is a measure of affinity in units of concentration, obtained from inhibition or displacement. Low values mean a stronger hold on the target, high ones a looser hold on the target. In turn, `O=C(O)[C@H]1/C(=C/CO)O[C@@H]2CC(=O)N21` [clavulanic acid] came in with a Ki in test [3] of 30.7 µM.

Consider `C[C@@H](O)[C@H]1C(=O)N2C(C(=O)O)=C(SCCN=CN)C[C@H]12` [imipenem], for which, in test [2], the Km was 31 ± 4 µM and the kcat was 0.017 ± 0.001 S^–1. The compound also had a Ki in test [3] of 73.8 µM.

In test [3], `C[C@@H](O)[C@H]1C(=O)N2C(C(=O)O)=C(S[C@@H]3CN[C@H](C(=O)N(C)C)C3)[C@H](C)[C@H]12` [meropenem] came in with a Ki of 1.53 µM.

Regarding `CC1(C)[C@H](C(=O)O)N2C(=O)C[C@H]2S1(=O)=O` [sulbactam], affinity in test [3] was put at a Ki of 21.1 µM.

As to `C[C@]1(Cn2ccnn2)[C@H](C(=O)O)N2C(=O)C[C@H]2S1(=O)=O` [tazobactam], the Ki in test [3] is 1.19 µM and 1.2 µM.
